Data set [1] is described as follows: Acute toxicity in BALB/c mouse assessed as mortality at 50 mg/kg, iv measured for 24 hrs. The format is organism-based. Particulars: in vivo, read-out: Activity.
Data set [2] is described as follows: Acute toxicity in BALB/c mouse assessed as mortality at 15 mg/kg, iv measured for 24 hrs. The format is organism-based. The settings on record: in vivo, read-out: Activity.
Data set [3] in a line: Acute toxicity in BALB/c mouse assessed as mortality at 10 mg/kg, iv measured for 24 hrs. The settings on record: in vivo, read-out: Activity. The format is organism-based.
A short description of data set [4]: Acute toxicity in BALB/c mouse assessed as mortality at 20 mg/kg, iv measured for 24 hrs. Particulars: in vivo, read-out: Activity. The format is organism-based.
In data set [5] the test system is Peritoneal macrophage. Put plainly: Cytotoxicity against mouse Peritoneal macrophage cells assessed as decrease in cell number at 20 microg/ml. The format is functional, cell-based. The settings on record: dose 20.0 µg/ml.
Data set [6] concerns Staphylococcus aureus. Kind of data set: Antimicrobial activity against Staphylococcus aureus CMCC 26003 at 5 times MIC measured at 180 mins. The format is functional, organism-based.
The test system of data set [7] is 4T1. Put plainly: Cytotoxicity against mouse 4T1 cells assessed as survival rate at 100 microg/ml. The format is functional. The settings on record: read-out: Survival.
In data set [8] the test system is Peritoneal macrophage. Kind of data set: Cytotoxicity against mouse Peritoneal macrophage cells assessed as survival rate at 100 microg/ml. The format is functional. The settings on record: read-out: Survival.
In data set [9] the test system is B16-F10. Kind of data set: Cytotoxicity against mouse B16-F10 cells assessed as survival rate at 100 microg/ml. The format is functional. Particulars: read-out: Survival.
The subject of data set [10] is HaCaT. Put plainly: Cytotoxicity against human HaCaT cells assessed as survival rate at 100 microg/ml. The format is functional. Particulars: read-out: Survival.
The test system of data set [11] is Peritoneal macrophage. Kind of data set: Antiinflammatory activity in mouse Peritoneal macrophage cells assessed as inhibition of LPS-induced IL-6 production at 20 microg/ml incubated for 6 hrs by ELISA analysis. The format is functional, cell-based. Particulars: dose 20.0 µg/ml. On the technique in general: ELISA stands for enzyme-linked immunosorbent assay.

Data set [12] relates to Peritoneal macrophage. Kind of data set: Antiinflammatory activity in mouse Peritoneal macrophage cells assessed as inhibition of LPS-induced TNF-alpha production at 20 microg/ml incubated for 6 hrs by ELISA analysis. The format is functional, cell-based. The settings on record: dose 20.0 µg/ml.
Data set [13] relates to Escherichia coli. Kind of data set: Drug resistance, ratio of MIC for Escherichia coli ATCC 25922 after 40 passages to MIC for Escherichia coli ATCC 25922 during first exposure. The format is functional.

Calls of active or inactive are those of the source. No cut-off for these calls is given here. Positions of bridges follow the written chain, without caps; N, C: chain ends. Non-standard residues stand in square brackets, D forms with d. Residues, ends and D or L forms follow the SMILES beside them. *: point of attachment. X3 = CC[C@H](C)CCCCC(=O)*; Dab = NCC[C@H](N)C(=O)O

For `CC(C)CCCCC(=O)N[C@@H](CCN)C(=O)N[C@H](C(=O)N[C@@H](CCN)C(=O)N[C@H]1CCNC(=O)[C@H]([C@@H](C)O)NC(=O)[C@H](CCN)NC(=O)[C@H](CCN)NC(=O)[C@H](CC(C)C)NC(=O)[C@@H](Cc2ccccc2)NC(=O)[C@H](CCN)NC1=O)[C@@H](C)O.CC[C@H](C)CCCCC(=O)N[C@@H](CCN)C(=O)N[C@H](C(=O)N[C@@H](CCN)C(=O)N[C@H]1CCNC(=O)[C@H]([C@@H](C)O)NC(=O)[C@H](CCN)NC(=O)[C@H](CCN)NC(=O)[C@H](CC(C)C)NC(=O)[C@@H](Cc2ccccc2)NC(=O)[C@H](CCN)NC1=O)[C@@H](C)O` (X3-[Dab]T[Dab][Dab][Dab][dF]L[Dab][Dab]T; lactam 4-C), the mortality at 24 h in data set [1] is 100%; in data set [2], 100%; in [3] it was 50%; in [4], 100%.
For the compound H-RRSRFGRFFKKVRKQLGRVLRHS-NH2, the result in [5], in data set [11] and in [12] was Active. Moreover, the result in data set [6] was inactive. For the same compound, the viability at 100 µg/mL in [7] was less than 40%; in [8], 80%; in [9] it was less than 40%; in [10] it was 80%.
Regarding H-RRSRFGRFFKKVRKQLGRVLRHSRI-NH2, the result in [5], in data set [11] and in data set [12] was Active. The outcome in [6] was inactive. In addition, the viability at 100 µg/mL in data set [7] was less than 40%; in data set [8], 80%; in data set [9], less than 40%; in data set [10], 80%. The Ratio in [13] was determined as 1.
For the compound H-RRSRFGRFFKKVRKQLGRVLRHSRITVGG-NH2, the outcome in data set [5], in data set [11] and in data set [12] was Active. For the same compound, the result in [6] was inactive. Further, the viability at 100 µg/mL is less than 40% in [7], 80% in data set [8], less than 40% in [9] and 80% in data set [10].
For H-RRSRFGRFFKKVRKQLGRVLRHSRITVGGRM-NH2, the outcome in [5], in [11] and in data set [12] was Active. The outcome in data set [6] was inactive. The viability at 100 µg/mL is less than 40% in [7], 80% in data set [8], less than 40% in data set [9] and 80% in [10].
Regarding `C[C@@H](O)[C@H]1C(=O)N2C(C(=O)O)=C(S[C@@H]3CN[C@H](C(=O)N(C)C)C3)[C@H](C)[C@H]12` [MEROPENEM], the Ratio in data set [13] is reported as 64.
For H-RRSRFGRFFKKVRKQLGRVLRHSRITV-NH2, the outcome in [5], in [11] and in [12] was Active. Besides, in [6], the outcome was inactive. In addition, the viability at 100 µg/mL in [7] is less than 40%; in data set [8], 80%; in data set [9], less than 40%; in data set [10], 80%.
On to H-RRSRFGRFFKKVRKQLGRVLR-NH2, for which the outcome in data set [5], in [11] and in data set [12] was Active. Also, in data set [6], the result was inactive. Besides, the viability at 100 µg/mL in data set [7] was less than 40%; in [8], 80%; in data set [9], less than 40%; in data set [10], 80%.

The values are drawn from ChEMBL document CHEMBL6078680, “Improving the Stability and Anti-Infective Activity of Sea Turtle AMPs Using Multiple Structural Modification Strategies” (J Med Chem, 2024).
